Reference: US5474988A, “5-phenylpyrrolo-1,4-benzoxazine and 5-phenylpyrrolo-1,4-benzothiazine compounds, process and intermediates for their production and pharmaceutical compositions containing them” (Kali-Chemie Pharma GmbH, priority 1993, dated 1995)

How the values were obtained:
male mice = conditions: mouse, in vivo, po, 1440 min
Experimental: 2. Determination of the minimum toxic dose.
Maximum doses of 300 mg/kg of the test substance were administered orally to male mice each weighing 20-25 g. The animals were carefully observed for symptoms of toxicity for 3 hours. All symptoms and deaths were additionally recorded over a period of 24 hours after administration. Associated symptoms were likewise observed and recorded. If death or severely toxic symptoms were observed, increasingly lower doses were administered to further mice. The lowest dose which caused death or severely toxic symptoms is indicated as the minimum toxic dose in the following Table B: […]

[1] = system: P.A.F.-induced aggregation of blood platelets; assay: anti-P.A.F. action in vitro (P.A.F.-induced platelet aggregation); type: cell-based; conditions: Oryctolagus cuniculus, 10^-5 mole/liter, read-out: Anti-P.A.F. activity in vitro, % inhibition of the P.A.F.-induced aggregation of blood platelets from rabbit blood
Source text: 3. Determination of the anti-P.A.F. action in vitro.
P.A.F. (=Platelet Activating Factor=Platelet Aggregation Factor) is a phospholipid mediator which has a multiplicity of actions. The activation of blood platelet aggregation results in the induction of long-lasting bronchoconstrictions and hyperreactivity of the respiratory passages.
In this test, the effect of the test substances on platelet aggregation induced by addition of P.A.F. in a platelet suspension obtained from rabbit blood was investigated according to the method described by Mikashima et al. (Jap. J. Pharmacol. 44 (1987) 387-391).
A suspension of platelets obtained from rabbit blood was used which contains 4×10^9 platelets/ml in a modified Tyrode buffer solution (=Tyrode solution with the addition of 1.3 mM/l of CaCl2 and 2.5 g/l of gelatine) adjusted to pH 7.4. Tyrode solution is an aqueous solution containing, per liter, 136.9 mmole of NaCl, 2.68 mmole of KCl, 2.31 mmole of CaCl2, 1.0 mmole of MgCl2, 11.9 mmole of NaHCO3, 1.45 mmole of NaH2 PO4 and 5.55 mmole of glucose. The platelets were concentrated from 10 ml blood samples of three rabbits (New Zealand hybrids, body weight 3-4 kg) in each case. To accomplish this, the blood samples were treated with ethylenediaminetetraacetic acid and washed according to the method of Artley et al. (Brit. J. Haematol. 19 (1970), 7-17). A platelet-rich plasma was first separated by centrifugation (20 minutes at 400×g). The platelets were separated from the plasma by repeated centrifugation for 15 minutes at 1400×g.After the centrifugation, the blood platelets remaining in the sediment were resuspended in a Tyrode buffer solution (but without calcium). 0.4 mmole of lysine acetylsalicylate was then added, and the blood platelets were sedimented again after 15 minutes. The sediment was resuspended in the aforementioned modified Tyrode buffer solution, and the number of platelets in the suspension obtained was adjusted to the desired content.
A 40×10^-9 molar P.A.F. solution was employed as a reagent. This solution was prepared from a 1.8×10^-3 molar stock solution in chloroform. To do this, a 10 μl sample of the stock solution was evaporated to dryness and dissolved again in 180 μl of the modified Tyrode buffer solution, to which 0.25% of lipid-free bovine serum albumin had been added. 10^-5 molar working solutions were then prepared from this and stored frozen. Samples of these solutions were appropriately diluted for tests.
In order to carry out the test, 50 μl of the blood platelet suspension and 10 μl of a 40×10^-5 molar solution of the compound to be investigated were added to […] of the modified Tyrode buffer solution with stirring (1000 rpm) in an aggregation tube provided with a small magnetic stirrer. This corresponded to a final test substance concentration of 10^-5 mole/l. After a preincubation time of 90 seconds, 10 μl of the P.A.F. preparation were added. For 4-5 minutes, the aggregation occurring in the aggregation tube was measured by means of a computerized aggregometer.
The aggregation occurring in the test tubes containing only the platelet suspension is rated as 0%. The aggregation occurring in the test tubes containing platelet suspension and P.A.F. preparation, in which a P.A.F.-induced increase in platelet aggregation takes place, is rated as 100%. The aggregation still occurring after addition of the test substances is measured, and from this the inhibition of the P.A.F.-inducedincrease in aggregation which takes place is calculated in %.

[2] = system: cutaneous histamine induced anaphylactoid reactions; assay: inhibition of the anaphylactoid cutaneous reaction induced by histamine; type: in vivo, Sprague-Dawley rats; conditions: Rattus norvegicus, po, 0.5 h; 2 × 10^-5 mole/kg p.o., one hour before histamine; assessed 30 minutes after provocation; read-out: Inhibitory action against cutaneous histamine induced anaphylactoid reactions in rats, % inhibition
Experimental: 1. Determination of the inhibition of the anaphylactoid cutaneous reaction induced by histamine.
The inhibition of the anaphylactoid cutaneous reaction induced by histamine was determined in Sprague-Dawley rats having body weights of 150-180 g.
In order to determine the histamine-induced anaphylactoid skin reaction, 50 μl of a physiological saline solution containing 0.8 mg/ml of histamine were injected into the animals intradermally on one flank. Immediately afterward, a solution of 26.4 mg/kg of a blue dye (Evan's Blue) was administered i.v. to the animals.
The test substances were dissolved in distilled water which contains 1% by volume of dimethylformamide and 1% by volume of Tween®20 (=polyoxyethylene(20) sorbitan monolaurate). One hour before the histamine injection, each animal received 2×10^-5 mol/kg of test substance, in each case administered orally in 0.5 ml of solution. A control group received only the solvent for comparison.
The histamine-induced anaphylactoid reactions which manifested themselves by edema formation, swelling and exudation of blue dye are assessed 30 minutes after provocation by the histamine injection. This is carried out by visual determination of the extent of the exudation of blue dye at the sites of edema formation. With the aid of comparison scales, the percentage inhibition of the anaphylactoid reactions produced by the test substances is determined in comparison with the reactions of the control animals not treated with test substance.
The results obtained with compounds of the formula I by the above test method are reproduced in the following table A. The example numbers given as identifiers for the compounds of formula I refer to the subsequent preparative examples.

5-lipoxygenase [3] = assay: inhibition of 5-lipoxygenase activity in polymorphonuclear rat leucocytes (LTB4 formation); type: cell-based; conditions: 10^-5 mol/l; 22° C.
Source text: 4. In vitro determination of 5-lipoxygenase inhibition. 4a. In vitro determination of inhibition of 5-lipoxygenase activity in polymorphonuclear rat leucocytes. Arachidonic acid contained in cell membranes is released after activiation of the polymorphonuclear leucocytes (=PMN). During the course of this, under the action of the enzyme 5-lipoxygenase (=5-LO) arachidonic acid metabolites are synthesized which can be converted to leucotriene B4 (=LTB4) by LTA4 hydrolase. LTB4 is a principal metabolite of the arachidonic acid metabolism taking place on activation of the enzyme 5-LO by the inflammatory stimulus in the cell membrane. In in vitro systems, this metabolite is secreted from PMNs. […] To accomplish this, the content of LTB4 in a culture medium of rat peritoneal PMNs was determined after stimulation by calcimycin (=calcium-ionophore A23187) such as described by […] et al., Can. J. Physiol. Pharmacol. 67 (1989), 17. A cell suspension containing peritoneal PMNs of male Sprague-Dawley rats (body weight 200 to 250 g) was obtained in a known manner as follows: 6 ml of a solution containing 27.9 g/l of sodium thioglycolate were injected i.p. into the animals in order to induce the PMN invasion due to this inflammatory stimulus. After 22 hours, the animals were sacrificed by means of lethal ether anaesthesia. 20 ml of a Hank's salt solution (=Hank's Balanced Salt Solution=HBSS), but without Ca^++ and Mg^++ ions and with 0.2% by weight of sodium citrate, were then injected into the abdominal cavity. The suspension of accumulated cells was removed from the abdominal cavity and the cells were separated by centrifugation (10 minutes at 400×g). The cells were purified by repeated centrifugation in the presence of Ficoll-Paque®, (=metrizoic acid preparation, […], manufacturer Pharmacia), then washed twice with HBSS containing Ca^++ and Mg^++ ions and resuspended in HBSS containing Ca^ ++ and Mg^++ ions and buffered with 10 mM HEPES (=hydroxyethylpiperazinoethanesulfonic acid). In order to carry out the tests, samples of 0.7 ml of the PMN suspension (=0.5×10^6 cells) in each case were incubated for 15 minutes at 22° C. in plastic tubes containing 10 μM of the test substance in dimethylformamide or, as a control experiment, only containing dimethylformamide. The LTB4 synthesis was initiated in the samples by addition of calcimycin (final concentration 5 μm), and the samples were incubated for 10 minutes at 22° C. Only solvent was added to blank control samples. After 10 minutes, the reaction was terminated by addition of 0.3 ml of cold methanol. The samples were kept for 1 hour at 4° C. and then centrifuged (5 minutes at 10,000×g). The supernatant liquid was investigated to determine its LTB4 content by means of reverse phase high-pressure liquid chromatography (=reverse phase HPLC). […] The LTB4 was identified by comparison with authentic standard solutions eluting at the same time and determined at a wavelength of 270 nm. The LTB4 contents are determined from comparison with calibrated standard solutions, and from this the inhibitory activity of the test substances was calculated in % inhibition of the LTB4 synthesis in comparison with the control samples containing no test substance.

5-lipoxygenase [4] = molecular target: T1, 5-lipoxygenase (Homo sapiens, UniProt P09917); assay: 5-lipoxygenase inhibition in human blood (LTB4 formation); type: cell-based; conditions: 0.5 h; 10^-5 mole/liter; human whole blood, 37° C.; read-out: In vitro % inhibitory activity on LTB4 formation in human blood stimulated by calcimycin
T1 construct: the 5-LO activity in human whole blood; from tissue; host or cells: heparinized human whole blood
T1 sequence (P09917 1-674): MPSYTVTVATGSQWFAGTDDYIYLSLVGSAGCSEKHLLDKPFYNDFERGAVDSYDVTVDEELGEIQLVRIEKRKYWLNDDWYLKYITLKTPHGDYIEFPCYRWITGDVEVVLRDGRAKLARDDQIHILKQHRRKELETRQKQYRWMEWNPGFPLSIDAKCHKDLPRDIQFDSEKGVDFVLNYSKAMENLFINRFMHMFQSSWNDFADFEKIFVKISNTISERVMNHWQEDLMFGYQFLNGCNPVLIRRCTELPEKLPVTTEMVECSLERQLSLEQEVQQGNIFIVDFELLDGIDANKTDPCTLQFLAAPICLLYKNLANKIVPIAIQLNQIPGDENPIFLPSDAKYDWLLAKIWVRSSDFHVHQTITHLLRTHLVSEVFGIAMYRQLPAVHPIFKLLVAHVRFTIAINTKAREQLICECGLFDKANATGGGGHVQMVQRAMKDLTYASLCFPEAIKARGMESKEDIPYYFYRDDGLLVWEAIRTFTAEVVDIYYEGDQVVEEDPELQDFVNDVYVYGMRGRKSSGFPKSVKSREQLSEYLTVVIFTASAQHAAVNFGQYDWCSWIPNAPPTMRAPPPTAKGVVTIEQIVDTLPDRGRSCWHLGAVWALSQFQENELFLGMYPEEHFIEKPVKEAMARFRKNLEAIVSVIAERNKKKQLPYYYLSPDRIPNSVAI
Experimental: 4c. In vitro determination of 5-lipoxygenase inhibition in human blood.
The inhibitory activity of the test substances on the 5-LO activity in human whole blood taking place after stimulation by calcimycin is investigated according to the method described by P. Gresele et al. (Biochem. Biophys. Commun. 137 (1986), 334).
For carrying out the test, human blood is collected in sterile 50 ml test tubes which contain 10 units of heparin/ml of blood and incubated for 5-10 minutes at 37° C. Amounts of test substance, dissolved in 10 μl of dimethylformamide, are added to 2 ml samples of this blood such that a final concentration of test substance of 10 μmol/l is achieved in the samples. Only 10 μl of the solvent were added to control samples. The samples were then incubated for 10 minutes at 37° C. In order to stimulate LTB4 synthesis, an amount of calcimycin, dissolved in 200 μl of plasma, was added to the samples such that a calcimycin concentration of 60 μmol/l was achieved, and the samples were incubated for a further 30 minutes at 37° C. The reaction was then terminated by addition of 200 μl of an ethylene glycol tetraacetate solution (corresponding to an ethylene glycol acetate concentration in the sample of 100 mmol/l). The samples are kept in an ice-bath for 10 minutes and then centrifuged (5 minutes at 1000×g). The supernantant liquids, which contain the LTB4 formed during the reaction time, are each separated and, for precipitation of the proteins contained therein, mixed with 3 ml of acetone and kept for 45 minutes at 4° C. Then the samples are centrifuged again (5 minutes at 1500×g), the supernatant liquids are separated, and the content of LTB4 therein is determined in a known manner by means of an enzyme immunoassay (=EIA). From the measured LTB4 values, the inhibitory activity of the test substances in human whole blood was calculated in % inhibition of LTB4 synthesis in comparison to the control samples containing no test substance.

| Compound | Minimum toxic dose (male mice) | inhibition at 10 µM [1] | inhibition in vivo at 20 µmol/kg [2] | In vitro inhibitory activity on LTB4 formation in rat PMNs stimulated by calcium ionophore A23187 (5-lipoxygenase [3]) | inhibition at 10 µM (5-lipoxygenase [4]) |
| --- | --- | --- | --- | --- | --- |
| COc1ccc(-c2c(C)c3cccc4c3n2CC(CN2CCN(c3cc(C)ccn3)CC2)O4)cc1 (centres unmarked) [Example 5, 2,3-Dihydro-5-(4-methoxyphenyl)-6-methyl-2-[4-(4-methylpyridin-2-yl)piperazin-1-ylmethyl]pyrrolo[1,2,3-de]-1,4-benzoxazine] | > 300 mg/kg | 100% | – | – | – |
| Cc1c(-c2ccc(O)cc2)n2c3c(cccc13)OC(CCN1CCN(c3ccccn3)CC1)C2 (centres unmarked) [Example 30] | – | 69% | 47% | 100% | – |
| Cc1cccc(N2CCN(CCC3Cn4c(-c5ccc(O)cc5)c(C)c5cccc(c54)O3)CC2)n1 (centres unmarked) [Example 33] | – | 43% | 39% | 90% | – |
| Cc1ccc(N2CCN(CCC3Cn4c(-c5ccc(O)cc5)c(C)c5cccc(c54)O3)CC2)nc1 (centres unmarked) [Example 31] | – | 52% | 58% | 81% | – |
| Cc1cccnc1N1CCN(CCCC2Cn3c(-c4ccc(O)cc4)c(C)c4cccc(c43)O2)CC1 (centres unmarked) [Example 41] | – | – | 60% | 84% | 100% |
| Cc1cccnc1N1CCN(CCC2Cn3c(-c4ccc(O)cc4)c(C)c4cccc(c43)O2)CC1 (centres unmarked) [Example 32] | – | 79% | 57% | 98% | – |
